Laboratory results published in US11492347B2 (ENYO PHARMA, priority 2018, dated 2022).

Legend:
[1] = target: T1, CISD3 Gene Product (Miner2) (Homo sapiens, UniProt P0C7P0); test: Stability of Fe-S cluster binding of purified NEET protein (absorbance 458 nm); type: biochemical; settings: for Residual cluster bound at end of experiment (Percentage Absorbance 458 nm at time zero): CISD3 gene product 20 μM, pH 6, at 180 minutes, vehicle control 11%; for Residual cluster bound at end of experiment (Percentage Absorbance 458 nm at time zero) / Time (in minutes) to achieve 50% loss of bound cluster (Absorbance 458 nm): compound 60 μM; for Time (in minutes) to achieve 50% loss of bound cluster (Absorbance 458 nm): Miner2 20 μM, pH 6, 37° C., run time 180 minutes, vehicle control 60; for Stabiliser or destabiliser of Fe-S cluster binding by CISD3 Gene Product (Miner2): time to 50% cluster loss changed by more than 25% compared to the Control sample, at the concentrations tested
T1 sequence (P0C7P0 15-127): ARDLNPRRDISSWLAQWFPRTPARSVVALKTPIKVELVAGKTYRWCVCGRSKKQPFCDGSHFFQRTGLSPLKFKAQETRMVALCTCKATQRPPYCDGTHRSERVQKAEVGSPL
In short: (§1)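 Purified NEET protein (20 μM) with compound (60 μM, 1:3 molar ratio) in 100 mM Bis-Tris pH 6, 100 mM NaCl, 66 μM DMSO at 37 °C; 458 nm absorbance decay read every 5 min for 500 min (NAF-1) or 180 min (mitoNEET, Miner2). Outputs: time to 50% absorbance loss and residual % bound cluster, versus protein alone.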

[2] = target: T2, CISD1 Gene Product (mitoNEET) (Homo sapiens, UniProt Q9NZ45); test: as above; type: biochemical; settings: for Time (in minutes) to achieve 50% loss of bound cluster (Absorbance 458 nm) / Residual cluster bound at end of experiment (Percentage Absorbance 458 nm at time zero): mitoNEET 20 μM, compound 60 μM; for Time (in minutes) to achieve 50% loss of bound cluster (Absorbance 458 nm): pH 6, 37° C., run time 180 minutes, vehicle control 80; for Residual cluster bound at end of experiment (Percentage Absorbance 458 nm at time zero): pH 6, at 180 minutes, vehicle control 16%
T2 sequence (Q9NZ45 33-108 limits assumed): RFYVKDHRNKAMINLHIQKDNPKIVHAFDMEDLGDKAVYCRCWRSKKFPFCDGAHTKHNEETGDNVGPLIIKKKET
In short: as §1

Compound	Residual cluster bound at end of experiment (Percentage Absorbance 458 nm at time zero) [1]	Time (in minutes) to achieve 50% loss of bound cluster (Absorbance 458 nm) [1]	Stabiliser or destabiliser of Fe-S cluster binding by CISD3 Gene Product (Miner2) [1]	Time (in minutes) to achieve 50% loss of bound cluster (Absorbance 458 nm) [2]	Residual cluster bound at end of experiment (Percentage Absorbance 458 nm at time zero) [2]	Stabiliser or destabiliser of Fe-S cluster binding by CISD1 Gene Product (mitoNEET) ([2]; time to 50% cluster loss changed by more than 25% compared to the Control sample, at the concentrations tested)
CC1(C)Cc2c(sc(NC(=O)c3ccc(N4CCOCC4)cc3)c2C(=O)O)C(C)(C)C1 [Compound #36, 5,5,7,7-Tetramethyl-2-[(4-morpholinobenzoyl)amino]-4,6-dihydrobenzothiophene-3-carboxylic acid]	39% (11%)	80 (60) minutes	Stabilisers	98 (80) minutes	36 % (16%)	
CC1(C)CCc2sc(NC(=O)c3ccccc3)c(C(=O)O)c21 [Compound #37, 2-Benzamido-4,4-dimethyl-5,6-dihydrocyclopenta[b]thiophene-3-carboxylic acid]	37% (11%)	75 (60) minutes	Stabilisers	85 (80) minutes	23% (16%)	
COC1CN(c2ccc(C(=O)Nc3sc4c(c3C(=O)O)CC(C)(C)CC4(C)C)cc2)C1 [Compound #58, 2-[[4-(3-Methoxyazetidin-1-yl)benzoyl]amino]-5,5,7,7-tetramethyl-4,6-dihydrobenzothiophene-3-carboxylic acid]	44% (11%)	125 (60) minutes	Stabilisers	100 (80) minutes	36% (16%)	stabilisers
